# Reference: patent US20110218103A1, “Fluoroalkyl-substituted 2-amidobenzimidazoles” (BAYER CROPSCIENCE AG, priority 2010, published 2011)
# Assays:
# Test in all cases: Drought stress test on crop plants, spray application in greenhouse, visual damage rating
# Type in all cases: in vivo
# Details in all cases: mean of three results
# [1] = test system: Hordeum vulgare (HORVS)
# Protocol: Seeds of monocotyledonous and dicotyledonous crop plants were placed in sandy loam in wood-fiber pots, covered with soil and cultivated in a greenhouse under good growth conditions. The test plants were treated at the early leaf stage (BBCH10-BBCH13). To ensure uniform water supply before commencement of stress, the potted plants were supplied with the maximum amount of water immediately beforehand by dam irrigation and, after application, transferred in plastic inserts in order to prevent subsequent, excessively rapid drying. The inventive compounds, formulated in the form of wettable powders (WP), wettable granules (WG), suspension concentrates (SC) or emulsion concentrates (EC), were sprayed onto the green parts of the plants as an aqueous suspension at an equivalent water application rate of 600 l/ha with addition of 0.2% wetting agent (agrotin). Substance application was followed immediately by stress treatment of the plants (cold or drought stress). For cold stress treatment, the plants were kept under the following controlled conditions: Drought stress was induced by gradual drying out under the following conditions: “day”: 14 hours with illumination at 26° C. “night”: 10 hours without illumination at 18° C. The duration of the respective stress phases was guided mainly by the state of the untreated, stressed control plants and thus varies from crop to crop. It was ended (by re-irrigating or transfer to a greenhouse with good growth conditions) as soon as irreversible damage is observed on the untreated, stressed control plants. In the case of dicotyledonous crops, for example oilseed rape and soya, the duration of the drought stress phase was between 3 and 5 days, in the case of monocotyledonous crops, for example wheat, barley or corn, between 6 and 10 days. The duration of the cold stress phase varied between 12 and 14 days. The end of the stress phase was followed by an approx. 5-7-day recovery phase, during which the plants were once again kept under good growth conditions in a greenhouse. In order to rule out any influence of the effects observed by any fungicidal action of the test compounds, it was additionally ensured that the tests proceed without fungal infection and without infection pressure. After the recovery phase had ended, the intensities of damage were rated visually compared to untreated, unstressed controls of the same age (in the case of drought stress) or the same growth stage (in the case of cold stress). The intensity of damage was first assessed as a percentage (100%=plants have died, 0%=like control plants). These values were then used to calculate the efficacy of the test compounds (=percentage reduction in the intensity of damage as a result of substance application) by the following formula: [formula] EF: efficacy (%) DVus: damage value of the untreated, stressed control DVts: damage value of the plants treated with test compound The tables below list mean values in each case from three results of the same test. Effects of selected compounds of the formula (I) under drought stress: HORVS=Hordeum vulgare
# [2] = test system: Triticum aestivum (TRZAS)
# Protocol: Seeds of monocotyledonous and dicotyledonous crop plants were placed in sandy loam in wood-fiber pots, covered with soil and cultivated in a greenhouse under good growth conditions. The test plants were treated at the early leaf stage (BBCH10-BBCH13). To ensure uniform water supply before commencement of stress, the potted plants were supplied with the maximum amount of water immediately beforehand by dam irrigation and, after application, transferred in plastic inserts in order to prevent subsequent, excessively rapid drying. The inventive compounds, formulated in the form of wettable powders (WP), wettable granules (WG), suspension concentrates (SC) or emulsion concentrates (EC), were sprayed onto the green parts of the plants as an aqueous suspension at an equivalent water application rate of 600 l/ha with addition of 0.2% wetting agent (agrotin). Substance application was followed immediately by stress treatment of the plants (cold or drought stress). For cold stress treatment, the plants were kept under the following controlled conditions: Drought stress was induced by gradual drying out under the following conditions: “day”: 14 hours with illumination at 26° C. “night”: 10 hours without illumination at 18° C. The duration of the respective stress phases was guided mainly by the state of the untreated, stressed control plants and thus varies from crop to crop. It was ended (by re-irrigating or transfer to a greenhouse with good growth conditions) as soon as irreversible damage is observed on the untreated, stressed control plants. In the case of dicotyledonous crops, for example oilseed rape and soya, the duration of the drought stress phase was between 3 and 5 days, in the case of monocotyledonous crops, for example wheat, barley or corn, between 6 and 10 days. The duration of the cold stress phase varied between 12 and 14 days. The end of the stress phase was followed by an approx. 5-7-day recovery phase, during which the plants were once again kept under good growth conditions in a greenhouse. In order to rule out any influence of the effects observed by any fungicidal action of the test compounds, it was additionally ensured that the tests proceed without fungal infection and without infection pressure. After the recovery phase had ended, the intensities of damage were rated visually compared to untreated, unstressed controls of the same age (in the case of drought stress) or the same growth stage (in the case of cold stress). The intensity of damage was first assessed as a percentage (100%=plants have died, 0%=like control plants). These values were then used to calculate the efficacy of the test compounds (=percentage reduction in the intensity of damage as a result of substance application) by the following formula: [formula] EF: efficacy (%) DVus: damage value of the untreated, stressed control DVts: damage value of the plants treated with test compound The tables below list mean values in each case from three results of the same test. Effects of selected compounds of the formula (I) under drought stress: TRZAS=Triticum aestivum
# [3] = test system: Zea mays (ZEAMX)
# Protocol: Seeds of monocotyledonous and dicotyledonous crop plants were placed in sandy loam in wood-fiber pots, covered with soil and cultivated in a greenhouse under good growth conditions. The test plants were treated at the early leaf stage (BBCH10-BBCH13). To ensure uniform water supply before commencement of stress, the potted plants were supplied with the maximum amount of water immediately beforehand by dam irrigation and, after application, transferred in plastic inserts in order to prevent subsequent, excessively rapid drying. The inventive compounds, formulated in the form of wettable powders (WP), wettable granules (WG), suspension concentrates (SC) or emulsion concentrates (EC), were sprayed onto the green parts of the plants as an aqueous suspension at an equivalent water application rate of 600 l/ha with addition of 0.2% wetting agent (agrotin). Substance application was followed immediately by stress treatment of the plants (cold or drought stress). For cold stress treatment, the plants were kept under the following controlled conditions: Drought stress was induced by gradual drying out under the following conditions: “day”: 14 hours with illumination at 26° C. “night”: 10 hours without illumination at 18° C. The duration of the respective stress phases was guided mainly by the state of the untreated, stressed control plants and thus varies from crop to crop. It was ended (by re-irrigating or transfer to a greenhouse with good growth conditions) as soon as irreversible damage is observed on the untreated, stressed control plants. In the case of dicotyledonous crops, for example oilseed rape and soya, the duration of the drought stress phase was between 3 and 5 days, in the case of monocotyledonous crops, for example wheat, barley or corn, between 6 and 10 days. The duration of the cold stress phase varied between 12 and 14 days. The end of the stress phase was followed by an approx. 5-7-day recovery phase, during which the plants were once again kept under good growth conditions in a greenhouse. In order to rule out any influence of the effects observed by any fungicidal action of the test compounds, it was additionally ensured that the tests proceed without fungal infection and without infection pressure. After the recovery phase had ended, the intensities of damage were rated visually compared to untreated, unstressed controls of the same age (in the case of drought stress) or the same growth stage (in the case of cold stress). The intensity of damage was first assessed as a percentage (100%=plants have died, 0%=like control plants). These values were then used to calculate the efficacy of the test compounds (=percentage reduction in the intensity of damage as a result of substance application) by the following formula: [formula] EF: efficacy (%) DVus: damage value of the untreated, stressed control DVts: damage value of the plants treated with test compound The tables below list mean values in each case from three results of the same test. Effects of selected compounds of the formula (I) under drought stress: ZEAMX=Zea mays
# [4] = test system: Brassica napus (BRSNS)
# Protocol: Seeds of monocotyledonous and dicotyledonous crop plants were placed in sandy loam in wood-fiber pots, covered with soil and cultivated in a greenhouse under good growth conditions. The test plants were treated at the early leaf stage (BBCH10-BBCH13). To ensure uniform water supply before commencement of stress, the potted plants were supplied with the maximum amount of water immediately beforehand by dam irrigation and, after application, transferred in plastic inserts in order to prevent subsequent, excessively rapid drying. The inventive compounds, formulated in the form of wettable powders (WP), wettable granules (WG), suspension concentrates (SC) or emulsion concentrates (EC), were sprayed onto the green parts of the plants as an aqueous suspension at an equivalent water application rate of 600 l/ha with addition of 0.2% wetting agent (agrotin). Substance application was followed immediately by stress treatment of the plants (cold or drought stress). For cold stress treatment, the plants were kept under the following controlled conditions: Drought stress was induced by gradual drying out under the following conditions: “day”: 14 hours with illumination at 26° C. “night”: 10 hours without illumination at 18° C. The duration of the respective stress phases was guided mainly by the state of the untreated, stressed control plants and thus varies from crop to crop. It was ended (by re-irrigating or transfer to a greenhouse with good growth conditions) as soon as irreversible damage is observed on the untreated, stressed control plants. In the case of dicotyledonous crops, for example oilseed rape and soya, the duration of the drought stress phase was between 3 and 5 days, in the case of monocotyledonous crops, for example wheat, barley or corn, between 6 and 10 days. The duration of the cold stress phase varied between 12 and 14 days. The end of the stress phase was followed by an approx. 5-7-day recovery phase, during which the plants were once again kept under good growth conditions in a greenhouse. In order to rule out any influence of the effects observed by any fungicidal action of the test compounds, it was additionally ensured that the tests proceed without fungal infection and without infection pressure. After the recovery phase had ended, the intensities of damage were rated visually compared to untreated, unstressed controls of the same age (in the case of drought stress) or the same growth stage (in the case of cold stress). The intensity of damage was first assessed as a percentage (100%=plants have died, 0%=like control plants). These values were then used to calculate the efficacy of the test compounds (=percentage reduction in the intensity of damage as a result of substance application) by the following formula: [formula] EF: efficacy (%) DVus: damage value of the untreated, stressed control DVts: damage value of the plants treated with test compound The tables below list mean values in each case from three results of the same test. Effects of selected compounds of the formula (I) under drought stress: BRSNS=Brassica napus
compound,measurement,setting,value
"NC(=O)c1cccc2[nH]c(C(F)(F)Cl)nc12 [1-1, 2-[chloro(difluoro)methyl]-1H-benzimidazole-4-carboxamide]","EF (HORVS), efficacy = percentage reduction in the intensity of damage",[1]; 100 g/ha,>5%
"CCCCS(CCCC)=NC(=O)c1cccc2[nH]c(C(F)(F)F)nc12 [1-5, N-(dibutyl-lambda^4-sulfanylidene)-2-(trifluoromethyl)-1H-benzimidazole-4-carboxamide]","EF (TRZAS), efficacy = percentage reduction in the intensity of damage",[2]; 250 g/ha,>5%
same,"EF (ZEAMX), efficacy = percentage reduction in the intensity of damage",[3]; 50 g/ha,>5%
same,"EF (BRSNS), efficacy = percentage reduction in the intensity of damage",[4]; 25 g/ha,>5%
"COC(F)(F)c1nc2c(C(N)=O)cccc2[nH]1 [1-6, 2-[difluoro(methoxy)methyl]-1H-benzimidazole-4-carboxamide]","EF (TRZAS), efficacy = percentage reduction in the intensity of damage",[2]; 25 g/ha,>5%
same,"EF (ZEAMX), efficacy = percentage reduction in the intensity of damage",[3]; 25 g/ha,>5%
same,"EF (BRSNS), efficacy = percentage reduction in the intensity of damage",[4]; 25 g/ha,>5%
NC(=O)c1cccc2[nH]c(C(F)C(F)(F)F)nc12 (stereo not drawn) [1-8],"EF (HORVS), efficacy = percentage reduction in the intensity of damage",[1]; 50 g/ha,>5%
same,"EF (ZEAMX), efficacy = percentage reduction in the intensity of damage",[3]; 25 g/ha,>5%
same,"EF (BRSNS), efficacy = percentage reduction in the intensity of damage",[4]; 50 g/ha,>5%
CC(C)NC(=O)c1cccc2[nH]c(C(F)(F)F)nc12 [1-21],"EF (HORVS), efficacy = percentage reduction in the intensity of damage",[1]; 25 g/ha,>5%
Cn1c(C(F)(F)F)nc2c(C(N)=O)cccc21 [1-27],"EF (HORVS), efficacy = percentage reduction in the intensity of damage",[1]; 100 g/ha,>5%
CCCCOC(F)(F)c1nc2c(C(N)=O)cccc2[nH]1 [1-50],"EF (TRZAS), efficacy = percentage reduction in the intensity of damage",[2]; 250 g/ha,>5%
same,"EF (ZEAMX), efficacy = percentage reduction in the intensity of damage",[3]; 250 g/ha,>5%
same,"EF (BRSNS), efficacy = percentage reduction in the intensity of damage",[4]; 25 g/ha,>5%
COCCOC(F)(F)c1nc2c(C(N)=O)cccc2[nH]1 [1-52],"EF (TRZAS), efficacy = percentage reduction in the intensity of damage",[2]; 25 g/ha,>5%
same,"EF (ZEAMX), efficacy = percentage reduction in the intensity of damage",[3]; 25 g/ha,>5%
same,"EF (BRSNS), efficacy = percentage reduction in the intensity of damage",[4]; 25 g/ha,>5%
CCCCn1c(C(F)(F)F)nc2c(C(N)=O)cccc21 [1-69],"EF (TRZAS), efficacy = percentage reduction in the intensity of damage",[2]; 25 g/ha,>5%
same,"EF (BRSNS), efficacy = percentage reduction in the intensity of damage",[4]; 25 g/ha,>5%
NC(=O)c1cccc2[nH]c(C(F)(F)OCC3CC3)nc12 [1-84],"EF (ZEAMX), efficacy = percentage reduction in the intensity of damage",[3]; 25 g/ha,>5%
C=CCCOC(F)(F)c1nc2c(C(N)=O)cccc2[nH]1 [1-89],"EF (ZEAMX), efficacy = percentage reduction in the intensity of damage",[3]; 250 g/ha,>5%
same,"EF (BRSNS), efficacy = percentage reduction in the intensity of damage",[4]; 250 g/ha,>5%
CCC(C)COC(F)(F)c1nc2c(C(N)=O)cccc2[nH]1 (stereo not drawn) [1-90],"EF (TRZAS), efficacy = percentage reduction in the intensity of damage",[2]; 250 g/ha,>5%
same,"EF (ZEAMX), efficacy = percentage reduction in the intensity of damage",[3]; 250 g/ha,>5%
NC(=O)c1cc(F)cc2[nH]c(C(F)C(F)(F)F)nc12 (stereo not drawn) [5-8],"EF (TRZAS), efficacy = percentage reduction in the intensity of damage",[2]; 25 g/ha,>5%
same,"EF (BRSNS), efficacy = percentage reduction in the intensity of damage",[4]; 250 g/ha,>5%
